In publication PMC6820730, “Leu^8 and Pro^8 oxytocin agonism differs across human, macaque, and marmoset vasopressin 1a receptors” (Scientific Reports, 2019):
Where “and” joins values, the source holds several entries; their conditions need not be identical. Equal entries are not always repeated. Starred links: 1 amine or outer side, 2 acyl side, 3 side chain; linkers in the order of their positions; H or OH if unused. Positions of bridges follow the written chain, without caps; N, C: chain ends. Non-standard residues stand in square brackets, D forms with d. Residues, ends and D or L forms follow the SMILES beside them. Tyr(3-I) = N[C@@H](Cc1ccc(O)c(I)c1)C(=O)O; X1 = O=C(CC1(S[*:2])CCCCC1)[*:1]; Orn = NCCC[C@H](N)C(=O)O

Assays:
[1] = system: marmoset AVPR1a; assay: Intact cell 125I-OVTA competition binding, CHO cells expressing marmoset AVPR1a; conditions: competition with 125I-OVTA in intact CHO cells, 3 h on ice, ± Std. Error, n = 5
Protocol: (§1) Intact cell competition binding assays
(§2) Cells were washed four times with 100 µL ice-cold HGH-BSA, solubilized with 100 µL 0.2 N NaOH, and radioactivity was quantified with a gamma counter. Half-maximal inhibitory concentrations (IC50) were determined by plotting bound ^125I-OVTA vs. competitor concentration. IC50 values were then corrected using the Cheng-Prusoff equation with each receptor’s KD for ^125I-OVTA to produce Ki values for the competing ligands.
(§3) Binding affinities for ^125I-OVTA at each primate AVPR1a were calculated by subtracting nonspecific binding and then plotting bound ^125I-OVTA vs. free ^125I-OVTA. Because concentrations of ^125I-OVTA were not identical from experiment to experiment, technical replicates within each experiment (n = 3) were normalized and then corrected using the Cheng-Prusoff equation. […] Differences in Ca^2+ mobilization potency (EC50) and maximal response to OXT were determined by normalizing OXT-induced (Log M) Ca^2+ responses as a percentage of maximal (100%) AVP-induced Ca^2+ response. […] All best-fit data (Ki, EC50, and Ca^2+ maximal responses) were analyzed using the nonlinear least squares curve-fitting capabilities of GraphPad Prism.

[2] = system: untransfected CHO cells; assay: Ca2+ response in untransfected CHO cells; assay type: cell-based, Chinese hamster
[3] = system: marmoset AVPR1a; assay: Ca2+ mobilization assay, CHO cells expressing marmoset AVPR1a; assay type: cell-based
Protocol: (§4) Ca^2+ mobilization assays
as §3, with “. […] . Binding” for “Binding”, “response. We averaged across technical replicates (n = 3) within each biological replicate and then averaged across the biological replicates (n = 3), normalized the data, and tested for significant differences of best-fit LogEC50 using one-way ANOVA analyses.” for “response.”, “.” for “All best-fit data (Ki, EC50, and Ca^2+ maximal responses) were analyzed using the nonlinear least squares curve-fitting capabilities of GraphPad Prism.”

[4] = system: macaque AVPR1a; assay: Intact cell 125I-OVTA competition binding, CHO cells expressing macaque AVPR1a; conditions: competition with 125I-OVTA in intact CHO cells, 3 h on ice, ± Std. Error, n = 3
Protocol: as §1, §2, §3

[5] = system: macaque AVPR1a; assay: Ca2+ mobilization assay, CHO cells expressing macaque AVPR1a; assay type: cell-based
Protocol: as §4
as §3, with “. […] . Binding” for “Binding”, “response. We averaged across technical replicates (n = 3) within each biological replicate and then averaged across the biological replicates (n = 3), normalized the data, and tested for significant differences of best-fit LogEC50 using one-way ANOVA analyses.” for “response.”, “.” for “All best-fit data (Ki, EC50, and Ca^2+ maximal responses) were analyzed using the nonlinear least squares curve-fitting capabilities of GraphPad Prism.”

[6] = biological target: T1, human AVPR1a (Homo sapiens, UniProt P37288); assay: Ca2+ mobilization assay, CHO cells expressing human AVPR1a; assay type: cell-based; conditions: human AVPR1a in CHO cells; ± Std. Error, n = 6; read-out: Ca^2+ EC50
[7] = biological target: T1, human AVPR1a; assay: Intact cell saturation binding of 125I-OVTA, human AVPR1a CHO clone
Protocol: (§5) Intact cell saturation binding assays […] Cells were washed four times with 100 μL ice-cold HGH-BSA, solubilized with 100 μL 0.2 N NaOH, and radioactivity quantified with a gamma counter. We also counted aliquots of the used binding medium (i.e., free ^125I-OVTA) to quantify free radioligand CPM directly, eliminating any concerns about differential depletion of ligand due to differential receptor expression levels across species or time. […] Binding affinity for ^125I-OVTA was determined after correcting for non-specific binding by plotting specific bound/free vs. bound using a single-site binding equation (Graphpad Software Inc., La Jolla, CA). […] Binding affinities for ^125I-OVTA at each primate AVPR1a were calculated by subtracting nonspecific binding and then plotting bound ^125I-OVTA vs. free ^125I-OVTA. Because concentrations of ^125I-OVTA were not identical from experiment to experiment, technical replicates within each experiment (n = 3) were normalized and then corrected using the Cheng-Prusoff equation. […] We averaged across technical replicates (n = 3) within each biological replicate and then averaged across the biological replicates (n = 3), normalized the data, and tested for significant differences of best-fit LogEC50 using one-way ANOVA analyses.

[8] = system: macaque AVPR1a; assay: Intact cell saturation binding of 125I-OVTA, macaque AVPR1a CHO clone; conditions: intact CHO cells, 3 h on ice
Protocol: as §5

[9] = biological target: human, macaque, and marmoset OXTR; set-up: method as in Taylor et al., 2018; conditions: range over the three species; ref Taylor et al., 2018; read-out: Affinity (Kd) of 125I-OVTA at human, macaque, and marmoset OXTR; cited from earlier work
[10] = system: marmoset AVPR1a; assay: Intact cell saturation binding of 125I-OVTA, marmoset AVPR1a CHO clone; conditions: intact CHO cells, 3 h on ice
Protocol: as §5

[11] = biological target: human, marmoset, and macaque AVPR1a; assay: Saturation binding of 125I-OVTA, summary over the three primate AVPR1a; conditions: range over the three species
Protocol: Intact cell saturation binding assays […] Cells were washed four times with 100 µL ice-cold HGH-BSA, solubilized with 100 µL 0.2 N NaOH, and radioactivity quantified with a gamma counter. We also counted aliquots of the used binding medium (i.e., free ^125I-OVTA) to quantify free radioligand CPM directly, eliminating any concerns about differential depletion of ligand due to differential receptor expression levels across species or time. […] Binding affinity for ^125I-OVTA was determined after correcting for non-specific binding by plotting specific bound/free vs. bound using a single-site binding equation (Graphpad Software Inc., La Jolla, CA).

T1 sequence (P37288 whole entry): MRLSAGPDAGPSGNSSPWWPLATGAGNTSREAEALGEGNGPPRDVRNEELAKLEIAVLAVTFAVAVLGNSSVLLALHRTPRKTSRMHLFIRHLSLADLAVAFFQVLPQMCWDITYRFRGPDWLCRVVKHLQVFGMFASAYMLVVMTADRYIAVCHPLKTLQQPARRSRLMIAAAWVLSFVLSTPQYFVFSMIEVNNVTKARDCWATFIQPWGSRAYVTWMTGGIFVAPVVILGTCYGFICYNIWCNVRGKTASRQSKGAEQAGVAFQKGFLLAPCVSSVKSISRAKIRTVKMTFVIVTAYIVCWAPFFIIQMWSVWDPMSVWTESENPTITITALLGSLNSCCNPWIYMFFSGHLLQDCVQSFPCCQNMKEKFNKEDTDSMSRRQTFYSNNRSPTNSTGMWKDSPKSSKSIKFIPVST

N=C(N)NCCC[C@H](NC(=O)[C@@H]1CCCN1C(=O)[C@@H]1CSSC[C@H](N)C(=O)N[C@@H](Cc2ccc(O)cc2)C(=O)N[C@@H](Cc2ccccc2)C(=O)N[C@@H](CCC(N)=O)C(=O)N[C@@H](CC(N)=O)C(=O)N1)C(=O)NCC(N)=O [AVP, arginine vasopressin]
Ki [1]: 0.9 nM and 0.86 nM | Ca^2+ response ([2]; AVP 100 mM to 0.1 nM (so in the source)): no Ca^2+ response | Ca^2+ response of AVP alone, % of the maximal Ca^2+ response ([3]; 10 nM AVP alone, marmoset AVPR1a): approximately 80% | EC50 ([3]; marmoset AVPR1a in CHO cells, ± Std. Error, n = 3, read-out: Ca^2+ EC50): 0.05 ± 0.05 nM | Ki [4]: 1.2 nM and 1.21 nM | EC50 ([5]; macaque AVPR1a in CHO cells, ± Std. Error, n = 3, read-out: Ca^2+ EC50): 0.3 nM and 0.31 nM | Maximal Ca^2+ response, comparison among ligands ([5]; macaque AVPR1a, F(2,6) = 0.23, p = 0.80): equal maximal Ca^2+ responses

CC[C@H](C)[C@@H]1NC(=O)[C@H](Cc2ccc(O)cc2)NC(=O)[C@@H](N)CSSC[C@@H](C(=O)N2CCC[C@H]2C(=O)N2CCC[C@H]2C(=O)NCC(N)=O)NC(=O)[C@H](CC(N)=O)NC(=O)[C@H](CCC(N)=O)NC1=O [Pro^8-OXT] (H-CYIQNCPPG-NH2; disulfide 1-6)
EC50 [6]: 36.2 ± 0.25 nM

CC[C@H](C)[C@@H]1NC(=O)[C@H](Cc2ccc(OC)cc2)NC(=O)CC2(CCCCC2)SSC[C@@H](C(=O)N2CCC[C@H]2C(=O)N[C@@H](CCCN)C(=O)N[C@@H](Cc2ccc(O)c(I)c2)C(N)=O)NC(=O)[C@H](CC(N)=O)NC(=O)[C@H]([C@@H](C)O)NC1=O [^125I-OVTA, ^125I-ornithine vasotocin analog] (Y(Me)ITNCP[Orn][Tyr(3-I)]-NH2; linker N-5 via X1; C-terminus assumed)
Bmax ([7]; human AVPR1a CHO clone, maximal binding of 125I-OVTA): 6.21 fmol/well | Kd ([7]; human AVPR1a, saturation binding, intact CHO cells, 3 h on ice): 1.17 nM | Kd [8]: 0.331 nM | Kd [9]: 0.161 to 0.481 nM | Kd [10]: 0.944 nM | Kd [11]: 0.331 to 1.17 nM

Lysophosphatidic acid [Lysophosphatidic acid (LPA)]
Ca^2+ response ([2]; 10 mM (so in the source)): do show a Ca^2+ response
